This note sets out measurements from paper PMC3971528, “Leishmania infantum EndoG Is an Endo/Exo-Nuclease Essential for Parasite Survival” (PLoS ONE, 2014).

The assay deals with T1, LiEndoG (rLiEndoG) (Leishmania infantum, UniProt B0ZTD3).
T1 construct: gene endog; recombinant from pRSET-LiendoG in E. coli BL21(DE3) pLys
T1 sequence (B0ZTD3 1-510): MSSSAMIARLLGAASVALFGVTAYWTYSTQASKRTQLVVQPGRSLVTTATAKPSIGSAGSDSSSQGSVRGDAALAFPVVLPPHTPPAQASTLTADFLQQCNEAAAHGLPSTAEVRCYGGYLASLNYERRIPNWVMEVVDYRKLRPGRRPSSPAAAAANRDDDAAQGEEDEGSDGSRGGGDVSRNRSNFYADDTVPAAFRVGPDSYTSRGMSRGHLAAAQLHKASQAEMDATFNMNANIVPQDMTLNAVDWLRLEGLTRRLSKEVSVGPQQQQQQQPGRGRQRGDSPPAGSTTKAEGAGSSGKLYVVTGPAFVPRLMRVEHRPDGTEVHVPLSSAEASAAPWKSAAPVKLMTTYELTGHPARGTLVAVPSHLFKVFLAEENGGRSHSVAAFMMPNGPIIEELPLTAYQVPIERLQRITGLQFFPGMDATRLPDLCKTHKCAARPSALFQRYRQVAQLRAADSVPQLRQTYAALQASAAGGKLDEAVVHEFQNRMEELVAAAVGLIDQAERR
The experiment in a line: fluorescence nuclease assay, FAM/TAMRA double-stranded oligonucleotide probe. As to conditions: inhibitor; 30 pmol probe, 2.5 ng/mL LiEndoG, 40 min; increasing Lei49. The assay is classed as biochemical.

SMILES strings stand for the structures.

In the case of `Cc1cn([C@H]2C[C@H](OC(=O)CCC(=O)OCCOC(=O)[C@@H](N)C(C)C)[C@@H](COC(c3ccccc3)(c3ccccc3)c3ccccc3)O2)c(=O)[nH]c1=O` [Lei49, 2-[(S)-2-Amino-3-methylbutanoyl-oxy]ethyl [(2R,3S,5R)-5-(thymin-1-yl)-2-(trityloximethyl)tetrahydrofuran-3-yl] succinate], the “fluorescence nuclease assay, FAM/TAMRA double-stranded oligonucleotide probe” value is “Inhibition of the nuclease activity of LiEndoG by Lei49”.
